Reference: US20060069132A1, “Azolecarboxamide herbicides” (priority 2004, published 2006)

Key:
barnyardgrass [1] = assay: Test B pre-/postemergence herbicide test; type: in vivo, Echinochloa crus-galli; settings: for Barnyardgrass plant response rating: postemergence, scale 0 (no effect) to 100 (complete control)
Outline: (§1)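 Herbicidal effect was judged by eye on a 0–100 scale after plants stood 13 to 15 days in the greenhouse following pre- or postemergence treatment with surfactant-containing formulations.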

Surinam grass = assay: Test B pre-/postemergence herbicide test; type: in vivo, Urochloa decumbens; settings: for Surinam Grass plant response rating: postemergence, scale 0 (no effect) to 100 (complete control)
Outline: (§2)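 Pre: seeds sown, then sprayed. Post: 1–4-leaf plants (2–18 cm) sprayed at the same time. Paddy: flooded, treated at 2-leaf stage. Formulation: non-phytotoxic solvent with surfactant. Greenhouse 13–15 days; visual 0–100 score relative to controls.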

cocklebur = assay: Test B pre-/postemergence herbicide test; type: in vivo, Xanthium strumarium; settings: for Cocklebur plant response rating: postemergence, scale 0 (no effect) to 100 (complete control)
Outline: as §1

corn = assay: Test B pre-/postemergence herbicide test; type: in vivo, Zea mays; settings: for Corn plant response rating: postemergence, scale 0 (no effect) to 100 (complete control)
Outline: as §2

large crabgrass = assay: Test B pre-/postemergence herbicide test; type: in vivo, Digitaria sanguinalis; settings: for Crabgrass, Large plant response rating: postemergence, scale 0 (no effect) to 100 (complete control)
Outline: as §2

giant foxtail = assay: Test B pre-/postemergence herbicide test; type: in vivo, Setaria faberi; settings: for Foxtail, Giant plant response rating: postemergence, scale 0 (no effect) to 100 (complete control)
Outline: as §2

lambsquarters = assay: Test B pre-/postemergence herbicide test; type: in vivo, Chenopodium album; settings: for Lambsquarters plant response rating: postemergence, scale 0 (no effect) to 100 (complete control)
Outline: as §2

morningglory = assay: Test B pre-/postemergence herbicide test; type: in vivo, Ipomoea coccinea; settings: visual rating; for Morningglory plant response rating: postemergence, scale 0 (no effect) to 100 (complete control)
Outline: as §1

pigweed = assay: Test B pre-/postemergence herbicide test; type: in vivo, Amaranthus retroflexus; settings: for Pigweed plant response rating: postemergence, scale 0 (no effect) to 100 (complete control)
Outline: as §2

rice [2] = assay: Test B pre-/postemergence herbicide test; type: in vivo, Oryza sativa; settings: 0 = no effect, 100 = complete control, preemergence
Outline: as §2

velvetleaf = assay: Test B pre-/postemergence herbicide test; type: in vivo, Abutilon theophrasti; settings: for Velvetleaf plant response rating: postemergence, scale 0 (no effect) to 100 (complete control)
Outline: as §2

blackgrass = assay: Test B postemergence herbicide test; type: in vivo, Alopecurus myosuroides; settings: postemergence, visual rating, scale 0 (no effect) to 100 (complete control)
Outline: (§3)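 Treated at 2-leaf (paddy) or 1–4-leaf, 2–18 cm (postemergence); greenhouse 13–15 d; visual score vs control, 0 none to 100 complete control; dash = not tested.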

wheat = assay: Test B postemergence herbicide test; type: in vivo, Triticum aestivum; design: key to Wheat plant response rating: 0 = no effect, 100 = complete control; settings: postemergence, visual rating, scale 0 (no effect) to 100 (complete control)
Outline: (§4)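 Formulated test chemicals went onto postemergence plants measuring 2 to 18 cm, at one to four leaves. For the paddy assay, species had reached two leaves. Scoring took place 13–15 days later by eye, relative to untreated plants, using 0 for no effect up to 100 for full control.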

wild oat = assay: Test B postemergence herbicide test; type: in vivo, Avena fatua; settings: postemergence, visual rating, scale 0 (no effect) to 100 (complete control)
Outline: as §4

rice [3] = assay: Test B flooded paddy test; type: in vivo, Oryza sativa; settings: 1000 g ai/ha, visual rating, scale 0 to 100 (0 no effect, 100 complete control), 13 to 15 days
Outline: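 Plants grow to 1- to 4-leaf stage (2–18 cm) for postemergence spraying, or to 2-leaf stage for the paddy test. Formulated compound is applied. Greenhouse holding lasts 13–15 days. Response is scored visually relative to controls, 0 no effect to 100 complete control; a dash means no result.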

[4] = test system: small flower umbrella sedge; assay: Test B flooded paddy test; type: in vivo, Cyperus difformis; settings: 1000 g ai/ha, visual rating, scale 0 to 100 (0 no effect, 100 complete control), 13 to 15 days
Outline: as §3

ducksalad = assay: Test B flooded paddy test; type: in vivo, Heteranthera limosa; settings: 1000 g ai/ha, visual rating, scale 0 to 100 (0 no effect, 100 complete control), 13 to 15 days
Outline: as §3

barnyardgrass [5] = assay: Test B flooded paddy test; type: in vivo, Echinochloa crus-galli; settings: 1000 g ai/ha, visual rating, scale 0 to 100 (0 no effect, 100 complete control), 13 to 15 days
Outline: as §3

[6] = 125 g ai/ha, 0 = no effect, 100 = complete control, preemergence
[7] = 500 g ai/ha, visual rating, 0 = no effect, 100 = complete control, preemergence

CCc1nn(C(C)(C)C)cc1C(=O)Nc1cc(C(=O)N(C)CC)ccc1F [Compound 224]
0: Blackgrass plant response rating (blackgrass; 125 g ai/ha) | Wheat plant response rating (wheat; 125 g ai/ha) | Oat, Wild plant response rating (wild oat; 125 g ai/ha)
30: Barnyardgrass plant response rating (0 to 100 scale) (barnyardgrass [1]; [6]) | Barnyardgrass plant response rating (barnyardgrass [1]; 500 g ai/ha, visual rating) | Crabgrass, Large plant response rating (0 to 100 scale) (large crabgrass; [6]) | Foxtail, Giant plant response rating (giant foxtail; 500 g ai/ha, visual rating) | Plant response rating, Morningglory (morningglory; 500 g ai/ha, 0 = no effect, 100 = complete control, preemergence) | Morningglory plant response rating (morningglory; 125 g ai/ha) | Rice plant response rating (0 to 100 scale) (rice [2]; 125 g ai/ha) | Wheat plant response rating (wheat; 500 g ai/ha) | Oat, Wild plant response rating (wild oat; 500 g ai/ha)
20: Surinam Grass plant response rating (Surinam grass; 500 g ai/ha, visual rating) | Cocklebur plant response rating (0 to 100 scale) (cocklebur; [6]) | Corn plant response rating (0 to 100 scale) (corn; [6]) | Corn plant response rating (corn; 500 g ai/ha, visual rating) | Crabgrass, Large plant response rating (large crabgrass; 500 g ai/ha, visual rating) | Foxtail, Giant plant response rating (giant foxtail; 125 g ai/ha, visual rating) | Velvetleaf plant response rating (velvetleaf; 125 g ai/ha, visual rating)
90: Plant response rating, Barnyardgrass (barnyardgrass [1]; [7]) | Rice plant response rating (rice [3]) | Barnyardgrass plant response rating (barnyardgrass [5])
80: Pigweed plant response rating (0 to 100 scale) (pigweed; [6]) | Plant response rating, Rice (rice [2]; 500 g ai/ha, visual rating) | Sedge, Umbrella plant response rating [4] | Ducksalad plant response rating (ducksalad)
60: Surinam Grass plant response rating (0 to 100 scale) (Surinam grass; [6]) | Lambsquarters plant response rating (lambsquarters; 125 g ai/ha, visual rating) | Pigweed plant response rating (pigweed; 500 g ai/ha, visual rating) | Velvetleaf plant response rating (velvetleaf; 500 g ai/ha, visual rating)
40: Cocklebur plant response rating (cocklebur; 500 g ai/ha, visual rating) | Pigweed plant response rating (pigweed; 125 g ai/ha, visual rating)
70: Plant response rating, Corn (corn; [7]) | Plant response rating, Foxtail, Giant (giant foxtail; [7]) | Lambsquarters plant response rating (lambsquarters; 500 g ai/ha, visual rating) | Morningglory plant response rating (morningglory; 500 g ai/ha) | Velvetleaf plant response rating (0 to 100 scale) (velvetleaf; [6])
10: Barnyardgrass plant response rating (barnyardgrass [1]; 125 g ai/ha, visual rating) | Surinam Grass plant response rating (Surinam grass; 125 g ai/ha, visual rating) | Cocklebur plant response rating (cocklebur; 125 g ai/ha, visual rating) | Corn plant response rating (corn; 125 g ai/ha, visual rating) | Crabgrass, Large plant response rating (large crabgrass; 125 g ai/ha, visual rating) | Foxtail, Giant plant response rating (0 to 100 scale) (giant foxtail; [6]) | Blackgrass plant response rating (blackgrass; 500 g ai/ha)
100: Plant response rating, Surinam Grass (Surinam grass; [7]) | Plant response rating, Crabgrass, Large (large crabgrass; [7]) | Lambsquarters plant response rating (0 to 100 scale) (lambsquarters; [6]) | Plant response rating, Lambsquarters (lambsquarters; [7]) | Plant response rating, Pigweed (pigweed; [7]) | Plant response rating, Velvetleaf (velvetleaf; [7])
50: Plant response rating, Cocklebur (cocklebur; [7])
